# Tests used:
# DsbA protein = molecular target: T1, DsbA protein (Escherichia coli, UniProt P0AEG4); test: Oxidized and reduced states of DsbA protein (AMS modification, Western blotting); assay type: cell-based; details: wild-type strain, 5 mM cysteine, 20 minutes; FIG. 2
# T1 construct: endogenous in cells; host or cells: E. coli BW25113 (wild-type strain, also with pYdeD)
# Excerpt: The strains used in this experiment were the E. coli BW25113 strain (Andreas Haldimann and Barry L. Wanner, J. Bacteriol., 2001 November, 183 (21):6384-6393) as a wild-type parent strain, the dsbA-deficient JW3832 strain and dsbB-deficient JW5182 strain derived from BW25113 strain (Baba, T, et al., 2006, Mol. Syst. Biol., 2:2006.0008). As a plasmid carrying the dsbB gene, pDsbB (ASKA clone, Kitagawa, M. et al., 2005, DNA Res., 12:291-9) was used.
# In order to distinguish the oxidized state and the reduced state of the DsbA protein, the protein was modified with AMS (4-acetamido-4′-maleimidyl-stilbene-2,2′-disulfonate) (Kadokura, H. et al., 2004, Science, 303, 534-537). Each of the wild-type strain, the dsbA-deficient strain, the dsbB-deficient strain, the wild-type strain +pYdeD and the dsbB-deficient strain +pDsbB was cultured overnight at 30° C. in 3 ml of LB medium, and the resulting culture was used as a preculture medium. The preculture medium was inoculated into the LB medium in a 1% amount, and culture was performed at 30° C. with shaking until OD660 reached 0.4 to 0.5. […]
# The labeled protein was then separated by non-reduced SDS gel electrophoresis (12.5%), and then detected by Western blotting. […] The label was detected by using ECL Plus Western Blotting Detection Reagents (Amersham).
# OstA protein = test: Oxidized and reduced states of OstA protein (AMS modification, Western blotting); assay type: cell-based, Escherichia coli; details: wild-type strain with pmyc-OstA, 5 mM L-cysteine; FIG. 3
# Excerpt: Since it was elucidated that the reduced type DsbA was accumulated by cysteine (reduction stress), it was decided to investigate toxicity of cysteine and oxidized and reduced states of a protein in the periplasm. The OstA is a protein in the periplasm indispensable to growth, and requires disulfide bond formed by DsbA. In order to investigate the oxidized and reduced states of the OstA protein, the E. coli BW25113 strain as the wild-type parent strain and the dsbA-deficient JW3832 strain derived from the BW25113 strain were used, and the plasmid pmyc-OstA for expressing OstA fused with an Myc tag (Kadokura, H. et al., 2004, Science, 303, 534-537) was introduced into them. Under the same culture conditions as those of the aforementioned experiment for investigating the oxidized and reduced states of DsbA, addition of L-cysteine (final concentration: 5 mM) and modification of the protein with AMS (4-acetamido-4′-maleimidyl-stilbene-2,2′-disulfonate) were performed, and the OstA protein was detected by Western blotting. As the antibody, anti-Myc (mouse) was used in this experiment.
# [1] = test system: dsbA-deficient strain JW3832/pCA24; test: Growth test on L agar medium containing cysteine, dsbA-deficient strain; assay type: cell-based, Escherichia coli; details: L agar with 10, 15, 20 mM cysteine, 37° C. overnight; FIG. 1
# Excerpt: (§1) Since a dsbA-deficient strain was obtained by the screening of the Keio Collection, growth of the gene-deficient strain was observed on the agar medium containing cysteine of different concentrations in order to analyze the sensitivity of that strain to cysteine in more detail. Furthermore, as for the to/C gene (Japanese Patent Application No. 2008-040167, Wiriyathanawudhiwong, N. et al., Appl. Microbiol. Biotechnol. (2009) 81:903-913), which was previously obtained in a similar manner, and of which deletion is known to induce cysteine sensitivity, a similar experiment was performed by using a to/C-deficient strain. The dsbA-deficient strain and to/C-deficient strain used in this experiment were JW3832 strain and JW5503 strain, respectively (both were included in the Keio collection), and their parent strain was the BW25113 strain (Andreas Haldimann, A. and Wanner, B. L., J. Bacteriol., 2001 November, 183 (21):6384-6393). The plasmids carrying the dsbA gene and the to/C gene for the complementation experiment were pDsbA and pTo1C (ASKA clone (Kitagawa, M., et al., 2005, DNA Res., 12:291-299)), and the vector used as the base of them was pCA24 (vector for ASKA clone (Kitagawa, M., et al., 2005, DNA Res., 12:291-299)). […]
# [2] = test system: to/C-deficient strain JW5503/pCA24; test: Growth test on L agar medium containing cysteine, tolC-deficient strain; assay type: cell-based, Escherichia coli; details: L agar with 10, 15, 20 mM cysteine, 37° C. overnight; FIG. 1
# Excerpt: as §1
# [3] = test system: wild-type strains (E. coli BW25113); test: Screening of Keio collection on LB agar containing cysteine; assay type: cell-based, Escherichia coli; details: overnight at 37° C.
# Experimental: The 3,985 clones of the Keio collection were cultured at 37° C. for 15 hours in 0.5 ml of LB liquid medium. This culture medium was stamped on LB agar media containing cysteine at different concentrations (0, 15, 20, 25 mM), and culture was performed overnight at 37° C. Clones that were cysteine sensitive at the growth inhibition concentration of cysteine for wild-type strains (20 mM) were visually selected. […] A dsbA gene-deficient strain was obtained as a clone showing particularly strong and distinctive cysteine sensitivity among the above candidates.
# T1 sequence (P0AEG4 20-208): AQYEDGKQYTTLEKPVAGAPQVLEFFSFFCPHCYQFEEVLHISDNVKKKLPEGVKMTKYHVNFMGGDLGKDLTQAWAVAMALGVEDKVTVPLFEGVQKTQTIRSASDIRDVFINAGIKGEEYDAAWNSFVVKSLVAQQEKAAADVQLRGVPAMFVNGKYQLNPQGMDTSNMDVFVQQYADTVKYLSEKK
structure (smiles),measurement,setting,value
"N[C@@H](CS)C(=O)O [cysteine, L-cysteine]",DsbA-DsbB complex after exposure to cysteine,DsbA protein,markedly accumulated
same,oxidized/reduced state of DsbA after exposure to cysteine,DsbA protein,the reduced type DsbA accumulated
same,oxidized/reduced state of OstA after addition of cysteine,OstA protein,the reduced type accumulated
same,cysteine sensitivity (growth) compared with control strain BW25113/pCA24,[1],marked cysteine sensitivity
same,cysteine sensitivity (growth) compared with control strain BW25113/pCA24,[2],marked cysteine sensitivity
same,growth inhibition concentration of cysteine for wild-type strains,[3],20 mM
